Values joined by “and” are separate entries in the source; they are usually repeats but may differ in a detail not shown here. Identical values can stand only once. “Also recorded” adds a separate entry of the source. Like-named read-outs stand apart in the source and are kept apart here.
Legend:
[1] = tested on: HIV; assay: First clinical study of HIV+ patients: blood HIV count; assay type: in vivo
Description: Twelve symptomatic patients (five males and seven females) between the ages of 35 to 52 all of whom were infected with HIV in 1995 through blood transfusion and were refractory to standard treatments for HIV were treated with TPA. Each patient was administered a weight adjusted dosage of TPA (75 μg/sq m) in 200 ml of sterile saline by i.v. over one hour. This dose was administered once daily for the first three days of treatment. Each patient was then given this dose every other day for days 4 to 18 followed by a six month rest period prior to a second course of treatment according to the same protocol.

[2] = tested on: CD3, CD4, CD8; assay: Second clinical study of HIV+ patients: CD3, CD4, CD8; assay type: in vivo, human; design: CD4 / CD8 / CD3: unit not given here; details: for CD4 / CD3 / CD8: one value per patient
Description: (§1) Nine of the patients in Example III were given a second treatment of TPA. Of these nine, seven were asymptomatic at the beginning of the second trial. A tenth patient (patient #2a) who was symptomatic and had not previously been treated with TPA was added to the study. Each patient was administered a weight adjusted dosage of TPA (75 μg/sq m) in 200 ml of sterile saline intravenously over one hour. This dosage was given to each patient once a day for ten consecutive days followed by a rest period of ten days for three cycles and a total of 30 doses of TPA. Patients 5a, 6a, and 8a stopped taking anti-AIDS drugs one month prior to beginning the TPA treatment and beginning again one month after the third cycle. Patients 1-4-a, 7a, and 9a-10a continued taking anti-AIDS drugs throughout the treatment.
(§2) Blood samples were taken three days prior to starting treatment, after completing the first 10 day cycle of TPA infusion and again after the last TPA infusion and CD3, CD4, CD8, WBC, RBC, HGB and platelets were measured.

[3] = tested on: HIV; assay: Second clinical study of HIV+ patients: blood HIV count; assay type: in vivo; details: for BLOOD HIV COUNT LOG VALUE / BLOOD HIV COUNT RESULTS: one value per patient
Description: as §1, §2

[4] = tested on: HIV; assay type: in vivo; details: for HIV: antiretroviral therapy stopped, one value per patient
Description: Six patients, two males and four females between the ages of 37 and 52 years of age (Patients #13-18), were treated with TPA. Four of these patients previously received TPA treatment in combination with anti-HIV drugs in the two previous clinical studies. […] All treatments were stopped three days prior to the initiation of the third clinical study and were not resumed until 60 days after completion of the TPA treatment. The resumption of the standard HIV treatments was required by local health authorities.
(§3) Each patient in the study received 150 μg of TPA in 200 ml of sterile saline by intravenous infusion over a 1.5 to 2 hour period daily for 60 days for a total administered dose of 9.0 mg. Following completion of the 60 days of TPA therapy, these patients remained under observation for an additional 60 days though the received no further treatment.
CD3, CD4 and CD8 levels in peripheral blood were quantitated prior to starting treatment, and again at 30 and 60 days using flow cytometry and the appropriate antibodies obtained from B.D. Bioscience, San Diego, Calif. Viral load was determined using conventional methods at Kuang Ann men Hospital, Beijing, China. Patients RBC, WBC, platelets and hemoglobin levels were also measured.

[5] = tested on: HIV patients; assay: Third clinical study of HIV+ patients: symptoms and side effects (incl. case studies); assay type: in vivo, human
Description: Six patients, two males and four females between the ages of 37 and 52 years of age (Patients #13-18), were treated with TPA. Four of these patients previously received TPA treatment in combination with anti-HIV drugs in the two previous clinical studies. The two remaining patients had never been treated with TPA, but had previously received anti-HIV drug regimens. All treatments were stopped three days prior to the initiation of the third clinical study and were not resumed until 60 days after completion of the TPA treatment. The resumption of the standard HIV treatments was required by local health authorities.
as §3
Results of treatment of initially symptomatic AIDS patients treated with TPA according to the protocols of Example III, IV, and V. Patients who participated in multiple studies are in some cases identified by more than one patient number. All patient identification numbers correspond to the patient numbers in Tables 1-7.

[6] = tested on: terminal lung cancer; assay: Treatment of lung cancer (patient case); assay type: in vivo, human; details: 35 injections, 0.19 to 0.26 mg TPA three to four times a week
Excerpt: Patient ten was diagnosed with terminal lung cancer which was refractory to chemotherapy. The cancer metastasized into their bones leaving them unable to walk.

[7] = tested on: metastatic liver cancer; assay: Treatment of liver cancer (patient case); assay type: in vivo, human; details: three injections of 0.19 mg TPA; before 50,000+
Excerpt: Patient X, age ? was diagnosed with metastatic liver cancer. Their initial alpha fetoprotein level was 48,813. They were given chemotherapy and radiation treatments but their alpha fetoprotein level remained elevated at 50,000+.

[8] = Treatment of individuals who have suffered a stroke (patient cases); assay type: in vivo, human
Description: Patient seven, suffered a stroke eighteen months prior to treatment with TPA. At the time TPA treatment was initiated, they were unable to walk without a cane, had difficulty with both their left hand and left leg and was tired and weak. They received injections of 1 ampoule containing 0.19 mg of TPA (0.125 mg/m^2) every other day for four weeks, then 0.24 mg of TPA (1.25×0.125 mg/m^2) every other day for 2 weeks, and then 0.26 mg of TPA (1.5×0.125 mg/m^2) every other day for an additional 3 weeks.
Patient four, suffered a stroke seven years prior to beginning treatment with TPA. They received 3-4 injections of 0.19 mg of TPA (0.125 mg/m^2) per week for ten weeks for a total of 35 injections.

[9] = Treatment of rheumatoid arthritis (patient case); assay type: in vivo, human; details: multiple injections of TPA
[10] = Treatment of urinary incontinence (patient cases); assay type: in vivo, human
Excerpt: Patient twelve has suffered from urinary incontinence for more than 30 years.
Patient one has suffered from urinary incontinence for fifteen years.

[11] = 15th day during TPA (patient 07)
[12] = 4 days after initial TPA, one value per patient
[13] = 15 days after initial TPA, one value per patient
[14] = 25 days after initial TPA, one value per patient
[15] = After first 10-day TPA infusion cycle
[16] = After third 10-day TPA infusion cycle

Question: Which “BLOOD HIV COUNT LOG VALUE” [1, 11] does the source give for `CCCCCCCCCCCCCC(=O)O[C@@H]1[C@@H](C)[C@@]2(O)[C@@H](C=C(CO)C[C@]3(O)C(=O)C(C)=C[C@@H]23)[C@@H]2C(C)(C)[C@]12OC(C)=O` [TPA, 12-O-tetradecanoylphorbol-13-acetate] here?
Answer: 4.988

Question: What about the “BLOOD HIV COUNT RESULTS” value [1, 11] of the same compound?
Answer: 9.74 × 10^4 copies/ml

Question: And the “BLOOD HIV COUNT LOG VALUE” [1, 12]?
Answer: 6.899 and 4.910 and 7.243 and 5.974 and 4.160 and 5.179 and 5.959 and 6.151

Question: And the “BLOOD HIV COUNT RESULTS” value [1, 12]?
Answer: 7.92 × 10^6 copies/ml and 8.13 × 10^4 copies/ml and 1.75 × 10^7 copies/ml and 9.42 × 10^5 copies/ml and 1.44 × 10^4 copies/ml and 1.51 × 10^5 copies/ml and 9.09 × 10^5 copies/ml and 1.41 × 10^4 copies/ml

Question: And the “BLOOD HIV COUNT LOG VALUE” ([1]; 7 days after TPA (patient 06))?
Answer: 6.357

Question: And the “BLOOD HIV COUNT RESULTS” value ([1]; 7 days after TPA (patient 06))?
Answer: 2.28 × 10^6 copies/ml

Question: And the “BLOOD HIV COUNT LOG VALUE” [1, 13]?
Answer: 4.306 and 6.801 and 3.786 and 6.614 and 7.369 and 5.274 and 6.737

Question: And the “BLOOD HIV COUNT RESULTS” value [1, 13]?
Answer: 2.02 × 10^4 copies/ml and 6.33 × 10^6 copies/ml and 6.11 × 10^3 copies/ml and 1.11 × 10^6 copies/ml and 2.34 × 10^7 copies/ml and 1.88 × 10^5 copies/ml and 5.46 × 10^6 copies/ml

Question: And the “BLOOD HIV COUNT LOG VALUE” [1, 14]?
Answer: 4.416 and 6.941 and 5.934 and 4.084 and 6.745 and 3.724 and 6.890

Question: What about the “BLOOD HIV COUNT RESULTS” value [1, 14] of the same compound?
Answer: 2.60 × 10^4 copies/ml and 8.72 × 10^6 copies/ml and 8.59 × 10^5 copies/ml and 1.21 × 10^4 copies/ml and 5.56 × 10^6 copies/ml and 5.30 × 10^3 copies/ml and 7.77 × 10^6 copies/ml and undetectable

Question: And the “BLOOD HIV COUNT LOG VALUE” ([1]; 25 days after initial TPA, sample taken from the second cycle treatment (patients 10-12))?
Answer: 4.446 and 5.096 and 3.798

Question: What about the “change of viral load (summary of Table 2)” value ([1]; twelve patients) of the same compound?
Answer: five patients having an increase in HIV and no change or a reduction in seven others

Question: What about the CD4 ([2]; After first 10-day TPA infusion cycle, 75 μg/sq m i.v. daily) of the same compound?
Answer: 76 and 460 and 189 and 91 and 285 and 729 and 519 and 136 and 74 and 7

Question: What about the CD3 [2, 15] of the same compound?
Answer: 476 and 1200 and 823 and 1598 and 758 and 3148 and 1143 and 712 and 333 and 1323

Question: What about the CD8 [2, 15] of the same compound?
Answer: 335 and 729 and 584 and 1507 and 429 and >2000 and 547 and 574 and 261 and 907

Question: And the CD3 [2, 16]?
Answer: 625 and 2033 and 1193 and 1257 and 938 and 3347 and 1295 and 1317 and 308 and 2037

Question: And the CD4 [2, 16]?
Answer: 137 and 1002 and 205 and 94 and 276 and 786 and 495 and 100 and 63 and 19

Question: And the CD8 [2, 16]?
Answer: 543 and 980 and 916 and 1127 and 466 and >2000 and 733 and 1221 and 208 and 1129

Question: And the “CD3 (summary of Table 3)” value ([2]; after the first and third infusion with TPA)?
Answer: increase in CD3 in all patients

Question: What about the “BLOOD HIV COUNT LOG VALUE” ([3]; after first cycle TPA infusion) of the same compound?
Answer: 5.490 and 2.371 and 4.825 and 5.217 and 5.450 and 5.475

Question: What about the “BLOOD HIV COUNT RESULTS” value ([3]; after first cycle TPA infusion) of the same compound?
Answer: 3.09 × 10^5 copies/ml and lower the 500 copies/ml and undetectable (4×) and 6.68 × 10^4 copies/ml and 1.65 × 10^5 copies/ml and 2.82 × 10^5 copies/ml and 2.99 × 10^5 copies/ml

Question: And the “BLOOD HIV COUNT LOG VALUE” ([3]; after third cycle TPA infusion)?
Answer: 5.966 and 3.980 and 3.376 and 4.792 and 5.371 and 5.270 and 5.973

Question: And the “BLOOD HIV COUNT RESULTS” value ([3]; after third cycle TPA infusion)?
Answer: 9.24 × 10^5 copies/ml and 9.55 × 10^3 copies/ml and 2.38 × 10^3 copies/ml and undetectable (3×) and 6.20 × 10^4 copies/ml and 2.35 × 10^5 copies/ml and 1.86 × 10^5 copies/ml and 9.41 × 10^5 copies/ml

Question: What about the “viral load of HIV (summary)” value ([3]; ten patients) of the same compound?
Answer: undetectable in three patients (<200); it increased somewhat in six others and was reduced in one

Question: And the HIV ([4]; Sixty Days After TPA)?
Answer: 0.038 copies/ml (All Figures in Mill and Undetectable (2×) and 0.012 copies/ml (All Figures in Mill and 0.056 copies/ml (All Figures in Mill and 0.133 copies/ml (All Figures in Mill

Question: What about the HIV ([4]; Thirty Days After TPA) of the same compound?
Answer: 0.353 copies/ml (All Figures in Mill and 1.99 copies/ml (All Figures in Mill and 1.28 copies/ml (All Figures in Mill and 0.152 copies/ml (All Figures in Mill and 0.174 copies/ml (All Figures in Mill and 0.533 copies/ml (All Figures in Mill

Question: And the “viral load rebound after discontinuation of antiretroviral therapy” value ([4]; six patients, 150 μg TPA daily for 60 days)?
Answer: no rebound in viral levels; also recorded: no viral load rebound

Question: And the “recurrence of AIDS symptoms” value ([5]; 120 day observation and treatment period)?
Answer: no recurrence of AIDS symptoms

Question: And the “side effects of TPA treatment (individual patient)” value ([5]; protocol of Example V)?
Answer: local irritation due to a leaking needle; also recorded: a fever on one occasion; also recorded: skin irritation from a leaking needle; also recorded: no side effects

Question: What about the “AIDS symptoms during and after treatment (individual patient)” value ([5]; protocol of Example V, antiviral therapy stopped) of the same compound?
Answer: No AIDS symptoms returned; also recorded: remains symptom free; also recorded: No AIDS symptoms occurred

Question: What about the “fever during TPA infusion” value ([5]; protocol of Example V, individual patients) of the same compound?
Answer: 38-38.5 °C and 38-39 °C

Question: What about the “outcome, terminal lung cancer metastasized into bones” value [6] of the same compound?
Answer: in remission and able to walk normally

Question: What about the alpha fetoprotein levels [7] of the same compound?
Answer: returned to normal levels within four months

Question: And the recovery after stroke ([8]; stroke eighteen months before, 0.19, 0.24, 0.26 mg TPA every other day over 9 weeks)?
Answer: recovered fully

Question: And the “mobility in their face” value ([8]; stroke seven years before, 35 injections of 0.19 mg TPA)?
Answer: regained mobility in their face

Question: What about the “improvement in the mobility of their right side” value ([8]; stroke seven years before, 35 injections of 0.19 mg TPA in ten weeks) of the same compound?
Answer: 80%

Question: What about the “joint stiffness and hand function” value [9] of the same compound?
Answer: reduction in stiffness in the joints and an increase in functionality in their hands

Question: What about the urinary frequency ([10]; nine injections of 0.18 mg of TPA) of the same compound?
Answer: regained normal urinary frequency

Question: And the urinary frequency ([10]; six injections of 0.18 mg of TPA)?
Answer: regained normal urinary frequency
